In patent US20260034166A1, “HEPARIN COMPOSITIONS FOR TREATMENT OF LUNG DAMAGE AND METHODS OF USE THEREOF” (Atossa Therapeutics, Inc., priority 2022, published 2026):

How the values were obtained:
ciliary motility = conditions: cited from earlier work
[1] = aqueous solution at physiologic pH; cited from earlier work
[2] = Treatment of radiation-induced lung damage using nebulized enoxaparin and N-acetylcysteine; format: in vivo, human
Description: This example describes treatment of radiation-induced lung damage using nebulized enoxaparin and N-acetylcysteine. A patient with unresectable lung cancer, such as locally advanced or metastatic stage III/oligometastatic IV non-small cell lung carcinoma, who has received radiation therapy is administered nebulized enoxaparin via inhalation. The enoxaparin is purified to remove elemental impurities, as described in EXAMPLE 1, and formulated in water at a concentration of 100 mg/mL for a nebulized composition as described in EXAMPLE 2. A dose of either 0.5 mg enoxaparin per kg patient weight (mg/kg), 1 mg/kg, or 2 mg/kg of the aqueous enoxaparin formulation is nebulized and administered to the subject via inhalation every 12 hours for 14 days, followed by 14 days of no enoxaparin treatment. N-acetylcysteine is administered by inhalation via nebulization at 600 mg per dose 30 minutes after each dose of enoxaparin. The 28-day treatment cycle begins 4-6 weeks after completion of radiation therapy, and the treatment cycle is repeated for up to 6 cycles in the absence of disease progression or unacceptable toxicity. The patient continues to receive best supportive care for the lung cancer (e.g., chemotherapy therapy) while undergoing enoxaparin treatment.
(§1) Additionally, the enoxaparin therapy may reduce the recurrence of the lung cancer by slowing cancer progression through inhibition of mutagenic proliferation, adhesion, angiogenesis, migration, and invasion of cancer cells.

[3] = Treatment of chemotherapy-induced lung damage using nebulized heparin and N-acetylcysteine; format: in vivo, human
Description: This example describes treatment of chemotherapy-induced lung damage using nebulized heparin and N-acetylcysteine. A patient with unresectable lung cancer, such as locally advanced or metastatic stage III/oligometastatic IV non-small cell lung carcinoma, who is undergoing chemotherapy therapy with bleomycin, carmustine, lomustine, busulfan, daunorubicin, doxorubicin, or idarubicin is administered nebulized enoxaparin via inhalation. The enoxaparin is purified to remove elemental impurities, as described in EXAMPLE 1, and formulated in water at a concentration of 100 mg/mL for a nebulized composition as described in EXAMPLE 2. A dose of either 0.5 mg enoxaparin per kg patient weight (mg/kg), 1 mg/kg, or 2 mg/kg of the aqueous enoxaparin formulation is nebulized and administered to the subject via inhalation every 12 hours for 14 days, followed by 14 days of no enoxaparin treatment. N-acetylcysteine is administered by inhalation via nebulization at 600 mg per dose 30 minutes after each dose of enoxaparin. The 28-day treatment cycle is repeated for up to 6 cycles in the absence of disease progression or unacceptable toxicity. The patient continues to receive best supportive care for the lung cancer (e.g., chemotherapy therapy) while undergoing enoxaparin treatment.
as §1

[4] = same regimen, after radiation therapy
[5] = same regimen, during chemotherapy

2-alkyl-4-hydroxyquinolines [pyo compound]
concentration producing ciliostasis / inhibiting ciliary motility (ciliary motility; ciliostatic factors from Pseudomonas aeruginosa): 50 µg/mL

CCN(CC)/[N+]([O-])=N/O.CCNCC [diethylamine/NO]
time scale of NO release [1]: < 3 min

NCCN(CCN)/[N+]([O-])=N/O [diethylenetriamine/NO]
time scale of NO release [1]: approximately 20 hours

enoxaparin
development of radiation-induced pneumonitis ([2]; patient with unresectable lung cancer after radiation therapy, 0.5, 1 or 2 mg/kg inhaled every 12 hours for 14 days, N-acetylcysteine 600 mg after each dose): treats, prevents, or slows the development
airway inflammation [2, 4]: decreases airway inflammation
coagulation activation and pulmonary venous thromboembolism [2, 4]: prevents coagulation activation and pulmonary venous thromboembolism
release of inflammatory cytokines, such as IL-6 [2, 4]: inhibits release
development of chemotherapy-induced pneumonitis ([3]; patient with unresectable lung cancer undergoing chemotherapy, 0.5, 1 or 2 mg/kg inhaled every 12 hours for 14 days, N-acetylcysteine 600 mg after each dose): treats, prevents, or slows the development
airway inflammation [3, 5]: decreases airway inflammation
coagulation activation and pulmonary venous thromboembolism [3, 5]: prevents coagulation activation and pulmonary venous thromboembolism
release of inflammatory cytokines, such as IL-6 [3, 5]: inhibits release

rhamnolipid
effect on cilia (ciliary motility; limited exposure of tracheal explants): resulted in ciliostasis
